The conditions of data set [1]: human, in vivo, cited from earlier work.
The subject of the next data set is human serum proteins. As to conditions: cited from earlier work.
For data set [2] the following is noted: in vivo; cited from earlier work.
The next data set is described as follows: clinical. As to conditions: human, in vivo, po.
The next data set deals with CYP2D6 isoenzyme (Homo sapiens, UniProt P10635). The note with it: cited from earlier work; for activity over CYP2D6 isoenzyme compared with fluoxetine and its active metabolite: relative to fluoxetine and its active metabolite.
CYP2D6 isoenzyme, sequence (P10635 whole entry): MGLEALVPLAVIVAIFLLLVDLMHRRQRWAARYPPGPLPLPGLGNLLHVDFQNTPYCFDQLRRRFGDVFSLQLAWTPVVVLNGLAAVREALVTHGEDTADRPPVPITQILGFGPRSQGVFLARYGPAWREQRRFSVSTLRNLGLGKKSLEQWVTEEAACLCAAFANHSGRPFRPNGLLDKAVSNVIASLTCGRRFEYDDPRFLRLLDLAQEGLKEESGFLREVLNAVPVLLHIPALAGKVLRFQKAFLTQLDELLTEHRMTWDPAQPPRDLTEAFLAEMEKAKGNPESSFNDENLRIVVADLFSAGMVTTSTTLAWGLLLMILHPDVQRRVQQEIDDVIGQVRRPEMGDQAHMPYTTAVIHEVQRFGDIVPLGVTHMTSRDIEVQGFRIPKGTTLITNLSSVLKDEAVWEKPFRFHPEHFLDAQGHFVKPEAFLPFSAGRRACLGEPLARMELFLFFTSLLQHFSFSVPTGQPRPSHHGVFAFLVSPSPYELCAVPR
Data set [3] deals with serotonin reuptake process. As to conditions: relative to Sertraline; cited from earlier work.
The conditions of data set [4]: cited from earlier work.
For data set [5] the following is noted: metabolites of Alprazolam; cited from earlier work.

From the text for clinical: We performed a study on 30 healthy volunteer subjects using a double-blind design. Subjects with ages between 18 and 55 years were recruited. Exclusion criteria were: the use of substances with activity in CYP3A4 (quinidines), inhibitors (erythromycin), inducers (carbamazepines); consumption of illegal drugs (cocaine, heroin, tetrahydrocannabinoids); cigarettes, oral contraceptives, pregnancy, nursing, renal or liver disease history, obesity (>30% above ideal weight), abnormal biochemistry (electrolytes, liver or renal function) or hematologic (full count of blood cells).
After medicament delivery in each group, blood samples were taken at 0.5, 1, 1.5, 2, 2.5, 3, 4, 6, 8, 24 y 32 hours.

With `Cc1nnc2n1-c1ccc(Cl)cc1C(c1ccccc1)=NC2` [Alprazolam], the “time to maximum plasma concentrations” value in data set [1] (po) is 1 to 2 h. Also, in data set [1], the “Plasma clearance half-life, range” value is 6.3 to 26.9 h. Besides, the “attached to human serum proteins” value with human serum proteins is recorded as 80%. In addition, the “concentrations in steady state related with toxicity” value in data set [2] was “higher than 60 ng/mL”. In the data set “clinical”, the AUC(0-inf) (usually the area under the concentration-time curve extrapolated to infinity) turned out to be 167 ± 53.1 ng·h/mL; the Cmax (as a rule, the highest concentration seen after dosing) came out at 12.6 ± 7.5 ng/mL; the time of peak concentration (Tmax) (in general, the time from dosing to the highest level) was found to be 2.6 ± 1.4 h. Moreover, under “human, in vivo, po”, the “t1/2 (Clearance half-life)” value was determined as 11.3 ± 2.2 h.
As to `N[C@H]1CC[C@@H](c2ccc(Cl)c(Cl)c2)c2ccccc21` [DemethylSertraline], at CYP2D6 isoenzyme, the “activity over CYP2D6 isoenzyme compared with fluoxetine and its active metabolite” value is reported as “five to ten times lower”. The “activity over serotonin reuptake process compared with unaltered drug” value in data set [3] is “eight times lower”.
Regarding `CN[C@H]1CC[C@@H](c2ccc(Cl)c(Cl)c2)c2ccccc21` [Sertraline], the “in vitro inhibition of CYP2D6 isoenzyme” value at CYP2D6 isoenzyme (in vitro) was “weak in vitro inhibition”. Moreover, the “activity over CYP2D6 isoenzyme compared with fluoxetine and its active metabolite” value on CYP2D6 isoenzyme is on record as “five to ten times lower”. Further, in data set [4] (after delivering fixed doses), the “variation coefficient of plasma concentrations” value is on record as 38%. Further, in data set [4] (oral administration, after seven days, 10080 min), the “dose recovered in urine and feces” value was 88%. In data set [4] (plasma), the Plasma half-life was 22 to 30 h. The “effect of Sertraline on Alprazolam kinetics” value (the two drugs administered in combination) was “does not significantly alter”.
As for `OCc1nnc2n1-c1ccc(Cl)cc1C(c1ccccc1)=NC2` [alpha-hydroxy-Alprazolam], the “biological activity compared with therapeutic activity of Alprazolam” value in data set [5] was “about one half”.
As to `O=C(c1ccccc1)c1ccccc1` [benzophenone], the “biological activity compared with therapeutic activity of Alprazolam” value in [5] was “essentially inactive”.

The values above are taken from patent EP2186515A1, “PHARMACEUTICAL COMPOSITION COMPRISING THE COMBINATION OF AN ANTI-DEPRESSIVE AGENT AND AN ANSIOLYTIC AGENT FOR CONTROL AND TREATMENT OF DEPRESSIVE DISORDERS” (World Trade Import-Export, WTIE A.G., priority 2007, dated 2009).
